Assay results taken from patent US20210040089A1, “KRAS MUTANT PROTEIN INHIBITORS” (Jacobio Pharmaceuticals Co., Ltd., priority 2019, published 2021).

Experiments:
[1] = test system: Phospho-ERK1/2(THR202/TYR204) in NCI-H358 cells express KRAS G12C; assay: Phospho-ERK1/2(THR202/TYR204) HTRF assay; assay type: cell-based; conditions: Homo sapiens; NCI-H358, 2 hours incubation; read-out: p-ERK inhibition in NCI-H358 IC50
Experimental: NCI-H358 cells express KRAS G12C were cultured in RPMI 1640 medium (Gibco) containing 10% fetal bovine serum (Gibco). Cells in culture medium were plated in 96-well plates at a concentration of 40,000 cells/well and allowed to attach overnight. The next day, culture medium was removed and added compounds diluted in assay medium (RPMI 1640, 0.1% EFBS). After 2 hours incubation in a 37° C./5% CO2 cell incubator, the assay medium was removed, then 50 μL of 1× supplemented lysis buffer (Cisbio) was added and the plates were incubated at 25° C. for 45 min with shaking. 10 μL of cell lysates from the 96-well plates were transferred to a 384-well plate (Greiner) containing 2.5 µL/well HTRF® pre-mixed antibodies (Cisbio 64AERPEH).
Incubate 4 hours at 25° C. and then read HTRF signals on Tecan Spark multimode microplate reader. The data were analyzed using a 4-parameter logistic model to calculate IC50 values.

[2] = target: T1, KRAS G12C (Homo sapiens, UniProt P01116, G12C); assay: SOS1 catalyzed nucleotide exchange assay (TR-FRET); assay type: biochemical; conditions: GDP-loaded HIS-KRAS(G12C), 1 hour pre-incubation with compound
T1 construct: HIS-KRAS (G12C, aa 2-185, Sino biological); purchased Sino biological
T1 sequence (P01116 2-185 isoform P01116-2 G12C): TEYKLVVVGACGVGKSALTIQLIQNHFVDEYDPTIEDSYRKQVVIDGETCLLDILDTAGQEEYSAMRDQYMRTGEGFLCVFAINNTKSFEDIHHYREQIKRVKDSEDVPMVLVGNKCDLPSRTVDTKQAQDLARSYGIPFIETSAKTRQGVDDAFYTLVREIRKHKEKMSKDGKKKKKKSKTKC
Experimental: 1. SOS1 Catalyzed Nucleotide Exchange Assay
HIS-KRAS (G12C, aa 2-185, Sino biological) was diluted to […] EDTA buffer (20 mM HEPES, pH 7.4, 50 mM NaCl, 10 mM EDA, 0.01% (v/v) Tween-20) and incubated for 30 min at 25° C. The EDTA pretreated HIS-KRAS(G12C) was diluted to 12 nM in assay buffer (25 mM HEPES, pH 7.4, 120 mM NaCl, 5 mM MgCl2, 1 mM DTI, 0.01% (v/v) Tween 20, 0.1% (w/v) BSA) containing 120 nM GDP(Sigma) and Mab Anti 6HIS-Tb cryptate Gold(Cisbio) and incubated for 1 hour at 25° C. to prepare GDP-loaded HIS-KRAS(G12C). The GDP-loaded HIS-KRAS(G12C) was pre-incubation with diluted compounds in a 384-well plate (Greiner) for 1 hour, then purified SOS 1ExD (Flag tag, aa 564-1049) and BODIPY™FL GTP (Invitrogen) were added to the assay wells (Final concentration: 3 nM HIS-KRAS(G12C), 2 μM SOS1 ExD, 80 nM BODIPY™FL GTP, 21 ng/mL MAb Anti 6HS-Tb cryptate Gold) and incubated for 4 hours at 25° C. TR-FRET signals were then read on Tecan Spark multimode microplate reader. The parameters were F486: Excitation 340 (35) nm, Emission 486 (10) nm, Lag time 100 μs, Integration time […]; F515: Excitation 340 (35) nm, Emission 515 (10) nm, Lag time […], Integration time 200 s. TR-FRET ratios for each individual wells were calculated by equation: TR-FRET ratio=(Signal F515/Signal F486)*10000. Then the data were analyzed using a 4-parameter logistic model to calculate IC50 values.

[3] = test system: NCI-H358 cells express KRAS G12C; assay: Cell growth inhibition assay (CCK-8); assay type: cell-based; conditions: Homo sapiens, 144 h; NCI-H358, 6 days incubation
Experimental: 3. Cell Growth inhibition assay
NCI-H358 cells express KRAS G12C were cultured in RPMI 1640 medium (Gibco) containing 10% fetal bovine serum (Gibco). Cells in culture medium were plated in 96-well plates at a concentration of 3000 cells/well ([…]) and allowed to attach overnight. The next day, compounds were diluted in culture medium and added to the plates. After 6 days incubation in a 37° C./5% CO2 cell incubator, the medium was removed, then 100 μL of 1×CCK-8 (MCE) in culture medium was added in each well. The plates were incubated 1.5-2 hours in a 37° C./5% CO2 cell incubator. OD450 signals were read on Tecan Spark multimode microplate reader and analyzed using a 4-parameter logistic model to calculate IC50 values.

SMILES	IC50 [1]	IC50 [2]	IC50 [3]
C=CC(=O)N1CCN(c2nc(OCCC3CCCC3N(C)C)nc3c2CCN(c2cccc4ccccc24)C3)CC1CC#N (centres unmarked) [Compound 21, 2-(1-acryloyl-4-(2-(2-(2-(dimethylamino)cyclopentyl)ethoxy)-7-(naphthalen-1-yl)-5,6,7,8-tetrahydropyrido[3,4-d]pyrimidin-4-yl)piperazin-2-yl)acetonitrile]	> 1000 nM	–	–
C=CC(=O)N1CCN(c2nc(OCC3(CN(C)C)CC3)nc3c2CCN(c2cccc4ccn(C)c(=O)c24)C3)CC1CC#N (centres unmarked) [Compound 2, 2-(1-acryloyl-4-(2-((1-((dimethylamino)methyl)cyclopropyl)methoxy)-7-(2-methyl-1-oxo-1,2-dihydroisoquinolin-8-yl)-5,6,7,8-tetrahydropyrido[3,4-d]pyrimidin-4-yl)piperazin-2-yl)acetonitrile]	–	> 500 nM	–
C=CC(=O)N1CCN(c2nc(OCC3CCC(N4CCCC4)C3)nc3c2CCN(c2cccc4ccccc24)C3)CC1CC#N (centres unmarked) [Compound 33, 2-(1-acryloyl-4-(7-(26aphthalene-1-yl)-2-((3-(pyrrolidin-1-yl)cyclopentyl)methoxy)-5,6,7,8-tetrahydropyrido[3,4-d]pyrimidin-4-yl)piperazin-2-yl)acetonitrile]	302 nM	–	652 nM
C=CC(=O)N1CCN(c2nc(OCC3(CN(C)C)CC3)nc3c2CCN(c2cccc4c2OCC4)C3)CC1CC#N (centres unmarked) [Compound 53, 2-(1-acryloyl-4-(7-(2,3-dihydrobenzofuran-7-yl)-2-((1-((dimethylamino)methyl)cyclopropyl)methoxy)-5,6,7,8-tetrahydropyrido[3,4-d]pyrimidin-4-yl)piperazin-2-yl)acetonitrile]	> 500 nM	174 nM	–
C/C=C/C(=O)N1CCN(c2nc(OCC3(CN(C)C)CC3)nc3c2CCN(c2cccc(C)c2C)C3)CC1CC#N (centres unmarked) [Compound 82, (E)-2-(1-(but-2-enoyl)-4-(2-((1-((dimethylamino)methyl)cyclopropyl)methoxy)-7-(2,3-dimethylphenyl)-5,6,7,8-tetrahydropyrido[3,4-d]pyrimidin-4-yl)piperazin-2-yl)acetonitrile]	> 500 nM	211 nM	–
C=CC(=O)N1CCN(c2nc(OCC3(CN(C)C)CC3)nc3c2CCN(c2cccc4scnc24)C3)CC1CC#N (centres unmarked) [Compound 52, 2-(1-acryloyl-4-(7-(benzo[d]thiazol-4-yl)-2-((1-((dimethylamino)methyl)cyclopropyl)methoxy)-5,6,7,8-tetrahydropyrido[3,4-d]pyrimidin-4-yl)piperazin-2-yl)acetonitrile]	> 500 nM	485 nM	–
C=CC(=O)N1CCN(c2nc(OC3CCCC3N3CCN(C)CC3)nc3c2CCN(c2cccc4ccccc24)C3)CC1CC#N (centres unmarked) [Compound 16, 2-(1-acryloyl-4-(2-((2-(4-methylpiperazin-1-yl)cyclopentyl)oxy)-7-(naphthalen-1-yl)-5,6,7,8-tetrahydropyrido[3,4-d]pyrimidin-4-yl)piperazin-2-yl)acetonitrile]	7060 nM	–	–
C=CC(=O)N1CCN(c2nc(OC3CCCCC3N(C)C)nc3c2CCN(c2cccc4ccccc24)C3)CC1CC#N (centres unmarked) [Compound 11, 2-(1-acryloyl-4-(2-((2-(dimethylamino)cyclohexyl)oxy)-7-(naphthalen-1-yl)-5,6,7,8-tetrahydropyrido[3,4-d]pyrimidin-4-yl)piperazin-2-yl)acetonitrile]	9860 nM	–	–
C=CC(=O)N1CCN(c2nc(O[C@H]3CCCC[C@@H]3N(C)C)nc3c2CCN(c2cccc4ccccc24)C3)CC1CC#N (stereo partly drawn) [Compound 60, 2-(1-acryloyl-4-(2-(((1S,2S)-2-(dimethylamino)cyclohexyl)oxy)-7-(naphthalen-1-yl)-5,6,7,8-tetrahydropyrido[3,4-d]pyrimidin-4-yl)piperazin-2-yl)acetonitrile]	7120 nM	–	–
C=CC(=O)N1CCN(c2nc(OCC3(N4CCCC4)CC3)nc3c2CCN(c2cccc4ccccc24)C3)CC1CC#N (centres unmarked) [Compound 32, 2-(1-acryloyl-4-(7-(naphthalen-1-yl)-2-((1-(pyrrolidin-1-yl)cyclopropyl)methoxy)-5,6,7,8-tetrahydropyrido[3,4-d]pyrimidin-4-yl)piperazin-2-yl)acetonitrile]	–	–	696 nM
C=CC(=O)N1CCN(c2nc(OCC3(CN(C)C)CC3)nc3c2CCN(c2c(N)cccc2F)C3)CC1CC#N (centres unmarked) [Compound 55, 2-(1-acryloyl-4-(7-(2-amino-6-fluorophenyl)-2-((1-((dimethylamino)methyl)cyclopropyl)methoxy)-5,6,7,8-tetrahydropyrido[3,4-d]pyrimidin-4-yl)piperazin-2-yl)acetonitrile]	–	> 500 nM	–
C=CC(=O)N1CCN(c2nc(OCC3CC3CN(C)C)nc3c2CCN(c2cccc4ccccc24)C3)CC1CC#N (centres unmarked) [Compound 19, 2-(1-acryloyl-4-(2-((2-((dimethylamino)methyl)cyclopropyl)methoxy)-7-(naphthalen-1-yl)-5,6,7,8-tetrahydropyrido[3,4-d]pyrimidin-4-yl)piperazin-2-yl)acetonitrile]	748 nM	372 nM	–
C=C(F)C(=O)N1CCN(c2nc(OCC3(CN(C)C)CC3)nc3c2CCN(c2cccc(C)c2C)C3)CC1CC#N (centres unmarked) [Compound 80, 2-(4-(2-((1-((dimethylamino)methyl)cyclopropyl)methoxy)-7-(2,3-dimethylphenyl)-5,6,7,8-tetrahydropyrido[3,4-d]pyrimidin-4-yl)-1-(2-fluoroacryloyl)piperazin-2-yl)acetonitrile]	> 500 nM	285 nM	–
C=CC(=O)N1CCN(c2nc(O[C@H]3CC[C@H](N(C)C)CC3)nc3c2CCN(c2cccc4ccccc24)C3)CC1CC#N (some centres unmarked) [Compound 1, 2-(1-acryloyl-4-(2-(((1r,4r)-4-(dimethylamino)cyclohexyl)oxy)-7-(naphthalen-1-yl)-5,6,7,8-tetrahydropyrido[3,4-d]pyrimidin-4-yl)piperazin-2-yl)acetonitrile]	3200 nM	–	–
C=CC(=O)N1CCN(c2nc(OC3CCC(N(C)C)C3)nc3c2CCN(c2cccc4ccccc24)C3)CC1CC#N (centres unmarked) [Compound 13, 2-(1-acryloyl-4-(2-((3-(dimethylamino)cyclopentyl)oxy)-7-(naphthalen-1-yl)-5,6,7,8-tetrahydropyrido[3,4-d]pyrimidin-4-yl)piperazin-2-yl)acetonitrile]	1210 nM	684 nM	–
C=CC(=O)N1CCN(c2nc(OCC3(N(C)C)CCC3)nc3c2CCN(c2cccc4ccccc24)C3)CC1CC#N (centres unmarked) [Compound 9, 2-(1-acryloyl-4-(2-((1-(dimethylamino)cyclobutyl)methoxy)-7-(naphthalen-1-yl)-5,6,7,8-tetrahydropyrido[3,4-d]pyrimidin-4-yl)piperazin-2-yl)acetonitrile]	1150 nM	–	888 nM
C=C(F)C(=O)N1CCN(c2nc(OCC3(CN4CCC(F)(F)C4)CC3)nc3c2CCN(c2cccc4cccc(C)c24)C3)CC1CC#N (centres unmarked) [Compound 81, 2-(4-(2-((1-((3,3-difluoropyrrolidin-1-yl)methyl)cyclopropyl)methoxy)-7-(8-methylnaphthalen-1-yl)-5,6,7,8-tetrahydropyrido[3,4-d]pyrimidin-4-yl)-1-(2-fluoroacryloyl)piperazin-2-yl)acetonitrile]	–	> 500 nM	–
C=CC(=O)N1CCN(c2nc(OCC3CCC(N(C)C)C3)nc3c2CCN(c2cccc(F)c2Cl)C3)CC1CC#N (centres unmarked) [Compound 29, 2-(1-acryloyl-4-(7-(2-chloro-3-fluorophenyl)-2-((3-(dimethylamino)cyclopentyl)methoxy)-5,6,7,8-tetrahydropyrido[3,4-d]pyrimidin-4-yl)piperazin-2-yl)acetonitrile]	> 1000 nM	–	–
